One test addresses T1, Bovine trypsin (Bos taurus, UniProt P00760).
T1 construct: purchased Worthington Biochemicals, Freehold, N.J
T1 sequence (P00760 24-246): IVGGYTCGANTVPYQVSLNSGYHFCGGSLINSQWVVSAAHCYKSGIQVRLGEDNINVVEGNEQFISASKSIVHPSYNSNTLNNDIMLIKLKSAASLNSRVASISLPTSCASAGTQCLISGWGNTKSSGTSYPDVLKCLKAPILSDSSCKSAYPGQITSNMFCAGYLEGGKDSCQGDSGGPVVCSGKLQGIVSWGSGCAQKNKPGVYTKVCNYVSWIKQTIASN
Nature of the test: Serine protease selectivity, Kass, trypsin chromogenic assay. Type of test: biochemical. Particulars: apparent association constant. In a few lines:
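Run as the human thrombin chromogenic assay. Human factor Xa used N-Benzoyl-Ile-Glu-Gly-Arg-p-nitroanilide as substrate. Bovine trypsin used N-Benzoyl-Phe-Val-Arg-p-nitroanilide.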

Test [1] has as its target T2, tissue plasminogen activator (t-PA) (Homo sapiens, UniProt P00750).
T2 construct: purchased American Diagnostica, Greenwich, Conn
Nature of the test: Fibrinolytic protease selectivity, Kass, t-PA chromogenic assay. Type of test: biochemical. The conditions noted are these: apparent association constant. In a few lines:
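Carried out like the human thrombin procedure, with chromogenic substrates H-D-Ile-Pro-Arg-p-nitroanilide for t-PA (single chain nt-PA or mt-PA6) and H-D-Val-Leu-Lys-p-nitroanilide for human plasmin. Inhibition of amidase activity gives association constants.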

Test [2] relates to human plasma. Nature of the test: Human plasma anticoagulation, thrombin time (TT). Particulars: concentration required to double the thrombin time, linear extrapolation. The method in brief:
(§1)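 Compounds added over a wide concentration range to citrated plasma on a coagulation instrument. PT: saline plus Thromboplastin-C; APTT: 120 s incubation with Actin reagent, then CaCl2 (0.02 M); TT: saline plus bovine thrombin (10 NIH units/mL). Concentration doubling clotting time estimated by linear extrapolation.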

The test system of test [3] is human plasma. Nature of the test: Human plasma anticoagulation, activated partial thromboplastin time (APTT). The conditions noted are these: concentration required to double the APTT, linear extrapolation. The method in brief:
as §1

The test system of test [4] is human plasma. Nature of the test: Human plasma anticoagulation, prothrombin time (PT). Particulars: concentration required to double the PT, linear extrapolation. The method in brief: as §1

Structures are written as SMILES. Square brackets hold non-standard residues; d marks the D form. Peptide text beside a SMILES is read from it. dPip = O=C(O)[C@H]1CCCCN1; Sar = CNCC(=O)O

T2 sequence (P00750 36-562): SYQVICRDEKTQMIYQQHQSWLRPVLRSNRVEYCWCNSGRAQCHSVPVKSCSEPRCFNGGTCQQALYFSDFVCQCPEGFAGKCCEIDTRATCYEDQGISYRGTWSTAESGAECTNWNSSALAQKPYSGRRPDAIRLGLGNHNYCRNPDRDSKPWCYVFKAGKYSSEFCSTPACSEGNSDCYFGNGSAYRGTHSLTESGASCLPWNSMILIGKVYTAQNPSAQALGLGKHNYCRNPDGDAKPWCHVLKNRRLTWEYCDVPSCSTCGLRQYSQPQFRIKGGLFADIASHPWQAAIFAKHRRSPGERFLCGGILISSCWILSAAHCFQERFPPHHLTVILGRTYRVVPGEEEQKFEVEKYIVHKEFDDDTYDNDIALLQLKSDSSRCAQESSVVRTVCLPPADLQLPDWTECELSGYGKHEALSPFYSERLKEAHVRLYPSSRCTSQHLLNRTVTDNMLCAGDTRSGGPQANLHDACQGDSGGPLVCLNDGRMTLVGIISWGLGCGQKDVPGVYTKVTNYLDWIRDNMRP

Take `Cl.Cl.N=C(N)NCCC[C@@H](C=O)NC(=O)CN(CCc1ccccc1)C(=O)[C@H]1CCCCN1` [Example 8, D-homoprolyl-N-(2-phenylethyl)glycyl-L-argininal dihydrochloride]: the “Enzyme Kass Trypsin” value at Bovine trypsin was found to be 2.7 L/mol × 10^6. The “Enzyme Kass t-PA” value in test [1] worked out at 0.009 L/mol × 10^6. Further, the “Human Plasma Anticoagulation 2 × Clotting time TT” value with human plasma [2] was 64 ng/mL. The “Human Plasma Anticoagulation 2 × Clotting time APTT” value in the test on human plasma [3] is recorded as 6,600 ng/mL. Also, the “Human Plasma Anticoagulation 2 × Clotting time PT” value in the test on human plasma [4] is given as 2,000 ng/mL.
In the case of `CC(C)CCN(CC(=O)N[C@H](C=O)CCCN=C(N)N)C(=O)[C@H]1CCCCN1.Cl.Cl` [Example 6, D--hPro--N(isoamyl)Gly--ArgH.2HCl], the “Enzyme Kass Trypsin” value at Bovine trypsin is reported as 5.9 L/mol × 10^6. For the same compound, the “Enzyme Kass t-PA” value in test [1] was determined as 0.004 L/mol × 10^6. In addition, the “Human Plasma Anticoagulation 2 × Clotting time TT” value in the test on human plasma [2] is listed as 170 ng/mL. Besides, in the test with human plasma [3], the “Human Plasma Anticoagulation 2 × Clotting time APTT” value was 3,200 ng/mL. Besides, the “Human Plasma Anticoagulation 2 × Clotting time PT” value with human plasma [4] is 2,600 ng/mL.
The matching figures for `CN(CC(=O)N[C@H](C=O)CCCNC(=N)N)C(=O)[C@H]1CCCCN1.Cl.Cl` [Example 1, D-homoprolyl-N-methylglycyl-L-argininal dihydrochloride] (H-[dPip]-[Sar]-Arg-aldehyde): 0.88 L/mol × 10^6, 0.0039 L/mol × 10^6, 160 ng/mL, 2,800 ng/mL and 4,800 ng/mL.

Source of the values: patent publication US6090787A, “Antithrombotic agents” (Eli Lilly and Company, priority 1999, dated 2000).
